The source of these data is article PMC10545747, “Development of cyclopeptide inhibitors of cGAS targeting protein-DNA interaction and phase separation” (Nature Communications, 2023).

The assay concerns the target T1, recombinant human cGAS enzyme (hcGAS-ΔN, residues 147–522) (Homo sapiens, UniProt Q8N884).
T1 construct: N-terminally truncated human cGAS (hcGAS-ΔN, residues 147–522); 6xHis-SUMO (N, cleaved yes); made in house; host or cells: Escherichia coli BL21 (DE3)
Kind of assay: RNA-based fluorescent biosensor assay of cGAS activity (2',3'-cGAMP formation), in vitro screening. The following applies: for Remaining activity (%), Fig. 1a source data / remaining activity at 20 µM: 20 μM, replicate values; for remaining activity at 20 µM: read-out: Remaining activity (%), Fig. 1a source data; for inhibition at 20 µM / Inhibition %: peptides screened at 20 μM, Supplementary Table 1 / Fig. S5b; for inhibition at 20 µM: read-out: Inhibition %. In kind it is biochemical. In outline:
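In 40 mM Tris-HCl pH 7.5, 100 mM NaCl, 10 mM MgCl2, ISD (0.5 μM) started the reaction with hcGAS-ΔN (1.5 μM), ATP (1 mM) and GTP (1 mM). Incubation was 2 h at 37 °C, with compounds screened at 20 μM. 2',3'-cGAMP formed was quantified with an RNA-based fluorescent biosensor.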

Several values for one entry are separate records, joined by “and”; a condition that tells them apart may be missing. Identical values can stand only once. Square brackets hold non-standard residues; d marks the D form. Peptide text beside a SMILES is read from it.

T1 sequence (Q8N884 147-522, stated change not applied): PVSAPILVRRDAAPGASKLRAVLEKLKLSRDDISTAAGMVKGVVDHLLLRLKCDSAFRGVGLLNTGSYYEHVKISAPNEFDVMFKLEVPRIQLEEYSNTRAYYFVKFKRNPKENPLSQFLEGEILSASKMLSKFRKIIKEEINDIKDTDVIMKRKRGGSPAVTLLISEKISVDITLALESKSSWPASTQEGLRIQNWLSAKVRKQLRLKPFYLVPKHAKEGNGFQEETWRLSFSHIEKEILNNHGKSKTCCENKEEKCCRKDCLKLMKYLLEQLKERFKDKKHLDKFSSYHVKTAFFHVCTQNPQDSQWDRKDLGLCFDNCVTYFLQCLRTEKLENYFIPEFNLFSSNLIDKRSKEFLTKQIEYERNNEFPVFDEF

For the molecule `CC(C)C[C@@H]1NC(=O)[C@H](CCCNC(=N)N)NC(=O)[C@H]([C@@H](C)O)NC(=O)[C@@H]2CCCN2C(=O)[C@@H](Cc2ccccc2)NC(=O)[C@H](CC(C)C)NC(=O)[C@H](CCCNC(=N)N)NC(=O)[C@H]([C@@H](C)O)NC(=O)[C@H](C)NC(=O)[C@@H](Cc2ccccc2)NC1=O` [XQ35, Cyclo (LfATRLfPTR)] (cyclo(ATRL[dF]PTRL[dF])), the “Remaining activity (%), Fig. 1a source data” value (“Remaining activity (%)” for short) was 106.53% and 106.617%; the remaining activity at 20 µM stood at 106%; the inhibition at 20 µM amounted to 0%.

Consider `CC(C)C[C@@H]1NC(=O)[C@H](CCCNC(=N)N)NC(=O)[C@H]([C@@H](C)O)NC(=O)[C@@H]2CCCN2C(=O)[C@@H](Cc2ccccc2)NC(=O)[C@H](C(C)C)NC(=O)[C@H](CCCNC(=N)N)NC(=O)[C@H]([C@@H](C)O)NC(=O)[C@@H]2CCCN2C(=O)[C@@H](Cc2ccccc2)NC1=O` [XQ30, Cyclo (VfPTRLfPTR)] (cyclo(L[dF]PTRV[dF]PTR)), for which the “Remaining activity (%)” value was 93.0523% and 92.7481%; the remaining activity at 20 µM was found to be 93.2%; the inhibition at 20 µM came to 7%.

With Cyclo (LfPTDLf(K(Alloc))VR) [XQ72], the Inhibition % was 0%.

For Cyclo (LwP(T(NMe))DLf(K(Dde))VR) [XQ61], the Inhibition % amounted to 16%.

As for `CC(C)C[C@@H]1NC(=O)[C@H](C)NC(=O)[C@H](C(C)C)NC(=O)[C@@H]2CCCN2C(=O)[C@@H](Cc2ccccc2)NC(=O)[C@H](CC(C)C)NC(=O)[C@H](CCCNC(=N)N)NC(=O)[C@H](C(C)C)NC(=O)[C@@H]2CCCN2C(=O)[C@@H](CCCNC(=N)N)NC1=O` [XQ56, Cyclo (LrPVRLfPVA)] (cyclo(AL[dR]PVRL[dF]PV)), the inhibition at 20 µM worked out at 0%.

For `CC(C)C[C@@H]1NC(=O)[C@H](C)NC(=O)[C@H](C(C)C)NC(=O)[C@@H]2CCCN2C(=O)[C@@H](Cc2ccccc2)NC(=O)[C@H](CCCNC(=N)N)NC(=O)[C@H](CCCNC(=N)N)NC(=O)[C@H](C(C)C)NC(=O)[C@@H]2CCCN2C(=O)[C@@H](Cc2ccccc2)NC1=O` [XQ44, Cyclo (RfPVALfPVR)] (cyclo(AL[dF]PVRR[dF]PV)), the “Remaining activity (%)” value was 107.77% and 107.519%; the remaining activity at 20 µM came to 107%; the inhibition at 20 µM turned out to be 0%.

For the molecule `CC(C)C[C@@H]1NC(=O)[C@H](CCCNC(=N)N)NC(=O)[C@H](C(C)C)NC(=O)[C@@H]2CCCN2C(=O)[C@@H](Cc2ccccc2)NC(=O)[C@H](C)NC(=O)[C@H](CCCNC(=N)N)NC(=O)[C@H](C(C)C)NC(=O)[C@@H]2CCCN2C(=O)[C@@H](C)NC1=O` [XQ21, Cyclo (AfPVRLaPVR)] (cyclo(A[dF]PVRL[dA]PVR)), the “Remaining activity (%)” value is 107.409% and 108.531%; the remaining activity at 20 µM amounted to 108%; the inhibition at 20 µM is 0%.

As for `CC(C)C[C@@H]1NC(=O)[C@H](CCCNC(=N)N)NC(=O)[C@H](C(C)C)NC(=O)[C@@H]2CCCN2C(=O)[C@@H](Cc2ccccc2)NC(=O)[C@H](CC(C)C)NC(=O)[C@H](CCCNC(=N)N)NC(=O)[C@H](CC(C)C)NC(=O)[C@@H]2CCCN2C(=O)[C@@H](Cc2ccccc2)NC1=O` [XQ54, Cyclo (LfPLRLfPVR)] (cyclo(LRL[dF]PVRL[dF]P)), the inhibition at 20 µM came to 0%.

Consider `CC(C)C[C@@H]1NC(=O)[C@H](CC(=O)O)NC(=O)[C@H]([C@@H](C)O)NC(=O)[C@@H]2CCCN2C(=O)[C@@H](Cc2ccccc2)NC(=O)[C@H](CC(C)C)NC(=O)[C@H](CCCNC(=N)N)NC(=O)[C@H]([C@@H](C)O)NC(=O)[C@H](C)NC(=O)[C@@H](Cc2ccccc2)NC1=O` [XQ59, Cyclo (LfPTDLfATR)] (cyclo(ATRL[dF]PTDL[dF])), for which the inhibition at 20 µM turned out to be 0%.

`CC(C)C[C@@H]1NC(=O)[C@H](CCCNC(=N)N)NC(=O)[C@H](C(C)C)NC(=O)[C@@H]2CCCN2C(=O)[C@@H](C)NC(=O)[C@H](C)NC(=O)[C@H](CCCNC(=N)N)NC(=O)[C@H](C(C)C)NC(=O)[C@@H]2CCCN2C(=O)[C@@H](Cc2ccccc2)NC1=O` [XQ14, Cyclo (AaPVRLfPVR)] (cyclo(A[dA]PVRL[dF]PVR)): the “Remaining activity (%)” value is 96.1851% and 95.3459%; the remaining activity at 20 µM was found to be 96%; the inhibition at 20 µM was found to be 4%.

As for Cyclo (LfPTDLf(Orn(Dde))VR) [XQ70], the Inhibition % was determined as 0%.

Turning to `CC(C)C[C@@H]1NC(=O)[C@H](C)NC(=O)[C@H](C(C)C)NC(=O)[C@@H]2CCCN2C(=O)[C@@H](Cc2ccccc2)NC(=O)[C@H](CC(C)C)NC(=O)[C@H](CCCNC(=N)N)NC(=O)[C@H](C(C)C)NC(=O)[C@@H]2CCCN2C(=O)[C@@H](Cc2ccccc2)NC1=O` [XQ4, Cyclo (LfPVALfPVR)] (cyclo(AL[dF]PVRL[dF]PV)), the “Remaining activity (%)” value is 84.7804% and 84.3938%; the remaining activity at 20 µM is 84.5%; the inhibition at 20 µM came to 16%.

Turning to Cyclo (LfRVDAfPVR) [XQ82], the Inhibition % is reported as 0%.

Consider `CC(C)C[C@@H]1NC(=O)[C@H](CCCNC(=N)N)NC(=O)[C@H]([C@@H](C)O)NC(=O)[C@@H]2CCCN2C(=O)[C@@H](Cc2ccccc2)NC(=O)[C@H](C)NC(=O)[C@H](CC(=O)O)NC(=O)[C@H](C)NC(=O)[C@@H]2CCCN2C(=O)[C@@H](Cc2ccccc2)NC1=O` [XQ79, Cyclo (LfPADAfPTR)] (cyclo(ADA[dF]PTRL[dF]P)), for which the inhibition at 20 µM worked out at 0%.

For `CC(C)C[C@@H]1NC(=O)[C@H](C)NC(=O)[C@H](C(C)C)NC(=O)[C@@H]2CCCN2C(=O)[C@@H](Cc2ccccc2)NC(=O)[C@H](CC(C)C)NC(=O)[C@H](CCCNC(=N)N)NC(=O)[C@H](C(C)C)NC(=O)[C@H](CCCNC(=N)N)NC(=O)[C@@H](Cc2ccccc2)NC1=O` [XQ45, Cyclo (LfRVRLfPVA)] (cyclo(AL[dF]RVRL[dF]PV)), the “Remaining activity (%)” value is 110.841% and 109.702%; the remaining activity at 20 µM is 115%; the inhibition at 20 µM came out at 0%.

For `CC(C)C[C@@H]1NC(=O)[C@H](CCCNC(=N)N)NC(=O)[C@H](C(C)C)NC(=O)[C@@H]2CCCN2C(=O)[C@@H](Cc2ccccc2)NC(=O)[C@H](C)NC(=O)[C@H](CCCNC(=N)N)NC(=O)[C@H](C)NC(=O)[C@@H]2CCCN2C(=O)[C@@H](Cc2ccccc2)NC1=O` [XQ15, Cyclo (AfPVRLfPAR)] (cyclo(ARA[dF]PVRL[dF]P)), the “Remaining activity (%)” value was 110.709% and 110.469%; the remaining activity at 20 µM was 110%; the inhibition at 20 µM was determined as 0%.

As to `CC(C)C[C@@H]1NC(=O)[C@H](CCCNC(=N)N)NC(=O)[C@H](C)NC(=O)[C@@H]2CCCN2C(=O)[C@@H](Cc2ccccc2)NC(=O)[C@H](C)NC(=O)[C@H](CCCNC(=N)N)NC(=O)[C@H](C(C)C)NC(=O)[C@@H]2CCCN2C(=O)[C@@H](Cc2ccccc2)NC1=O` [XQ13, Cyclo (AfPARLfPVR)] (cyclo(ARL[dF]PVRA[dF]P)), the “Remaining activity (%)” value was 92.7452% and 92.4625%; the remaining activity at 20 µM amounted to 93.4%; the inhibition at 20 µM stood at 7%.

In the case of `CC(C)C[C@@H]1NC(=O)[C@H](CCCNC(=N)N)NC(=O)[C@H](C(C)C)NC(=O)[C@H](CC(=O)O)NC(=O)[C@@H]2CCCN2C(=O)[C@@H](Cc2ccccc2)NC(=O)[C@H](CC(C)C)NC(=O)[C@H]([C@@H](C)O)NC(=O)[C@@H]2CCCN2C(=O)[C@@H](Cc2ccccc2)NC1=O` [XQ66, Cyclo (LfPTLfPDVR)] (cyclo(DVRL[dF]PTL[dF]P)), the inhibition at 20 µM worked out at 0%.

On to `CC(C)C[C@@H]1NC(=O)[C@H](CCCNC(=N)N)NC(=O)[C@H]([C@@H](C)O)NC(=O)[C@@H]2CCCN2C(=O)[C@@H](Cc2ccccc2)NC(=O)[C@H](CC(C)C)NC(=O)[C@H](CCCNC(=N)N)NC(=O)[C@H](C)NC(=O)[C@@H]2CCCN2C(=O)[C@@H](Cc2ccccc2)NC1=O` [XQ36, Cyclo (LfPARLfPTR)] (cyclo(ARL[dF]PTRL[dF]P)), for which the “Remaining activity (%)” value was 88.7067% and 87.9053%; the remaining activity at 20 µM was found to be 89.5%; the inhibition at 20 µM amounted to 11%.

Turning to Cyclo (LwPVDLf(K(Dde))VR) [XQ74], the Inhibition % is recorded as 0%.

As for `CC(C)C[C@@H]1NC(=O)[C@H](CCCNC(=N)N)NC(=O)[C@H](CC(C)C)NC(=O)[C@@H]2CCCN2C(=O)[C@@H](Cc2ccccc2)NC(=O)[C@H](C)NC(=O)[C@H](CCCNC(=N)N)NC(=O)[C@H](C(C)C)NC(=O)[C@@H]2CCCN2C(=O)[C@@H](Cc2ccccc2)NC1=O` [XQ47, Cyclo (AfPLRLfPVR)] (cyclo(A[dF]PLRL[dF]PVR)), the inhibition at 20 µM was 0%.

As for `CC(C)C[C@@H]1NC(=O)[C@H](CCCNC(=N)N)NC(=O)[C@H](C(C)C)NC(=O)[C@@H]2CCCN2C(=O)[C@@H](Cc2ccccc2)NC(=O)[C@H](Cc2c[nH]cn2)NC(=O)[C@H](CC(=O)O)NC(=O)[C@H]([C@@H](C)O)NC(=O)[C@@H]2CCCN2C(=O)[C@@H](Cc2ccccc2)NC1=O` [XQ67, Cyclo (LfPTDHfPVR)] (cyclo(DH[dF]PVRL[dF]PT)), the inhibition at 20 µM was 0%.

Consider `CC(C)[C@@H]1NC(=O)[C@@H]2CCCN2C(=O)[C@@H](Cc2ccccc2)NC(=O)[C@H](C)NC(=O)[C@H](CCCNC(=N)N)NC(=O)[C@H](C)NC(=O)[C@@H]2CCCN2C(=O)[C@@H](Cc2ccccc2)NC(=O)[C@H](C)NC(=O)[C@H](CCCNC(=N)N)NC1=O` [XQ18, Cyclo (AfPARAfPVR)] (cyclo(ARA[dF]PVRA[dF]P)), for which the “Remaining activity (%)” value was 93.9479% and 95.218%; the remaining activity at 20 µM was found to be 94.3%; the inhibition at 20 µM was determined as 5%.

A word on the remaining activity: it is the signal under treatment as a percentage of the control signal. A word on the inhibition: it is how much of the control response was suppressed.
